# Laboratory results reported in publication PMC4403932 (Journal of Medicinal Chemistry, 2015).
# Tests used:
# Assay type in all cases: binding
# [1] = target: T1, BRD3(1) (Homo sapiens, UniProt Q15059); test: Protein stability (thermal) shift assay, BRD3(1); conditions: compound 10 μM, protein 2 μM; average of triplicate
# T1 construct: Fragments were tested in a thermal shift assay against bromodomains of the BET subfamily; made in house
# [2] = target: T2, CREBBP (Homo sapiens, UniProt Q92793); test: Protein stability (thermal) shift assay, CREBBP; conditions: compound 10 μM, protein 2 μM; average of triplicate; read-out: ΔTm Shift, CREBBP
# T2 construct: small thermal shits (1.0–1.3 °C) for the bromodomain of CREBBP; made in house
# T2 sequence (Q92793 1085-1192 limits assumed): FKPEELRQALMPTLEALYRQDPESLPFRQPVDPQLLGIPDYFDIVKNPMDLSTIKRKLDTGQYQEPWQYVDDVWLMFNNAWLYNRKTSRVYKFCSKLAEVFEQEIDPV
# [3] = target: T3, BRD3(2) (Homo sapiens, UniProt Q15059); test: Protein stability (thermal) shift assay, BRD3(2); conditions: compound 10 μM, protein 2 μM; average of triplicate
# T3 construct: made in house
# T3 sequence (Q15059 306-415 limits assumed): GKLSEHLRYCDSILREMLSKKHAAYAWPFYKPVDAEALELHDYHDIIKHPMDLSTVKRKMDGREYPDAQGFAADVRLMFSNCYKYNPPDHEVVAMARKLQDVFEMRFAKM
# T1 sequence (Q15059 34-140 limits assumed): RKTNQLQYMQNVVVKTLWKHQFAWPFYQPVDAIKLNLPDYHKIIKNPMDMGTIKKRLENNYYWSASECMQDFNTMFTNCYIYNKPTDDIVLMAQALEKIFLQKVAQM
ΔTm at 10 µM [1] [°C],ΔTm at 10 µM [2] [°C],ΔTm at 10 µM [3] [°C],Compound
2.1,2.9,0.7,"COc1ccc(Br)cc1-c1nc(N)nc2[nH]cnc12 [Compound 7d, 2-Amino-6-(5-bromo-2-methoxyphenyl)-9H-purine]"
3.7,3.6,5.4,"Nc1nc(-c2cc(Br)cc3c2OCC3)c2nc[nH]c2n1 [Compound 11, 2-Amino-6-(5-bromo-2,3-dihydrobenzo[b]furan-7-yl)-9H-purine]"
